{
  "source": "paper PMC8969894",
  "about": "(Journal of medicinal chemistry, 2021)",
  "key": {"[1]": {"assay": "Metabolic stability in rat liver microsomes", "type": "in vitro ADME"}, "MDCK-MDR1 cells": {"test_system": "MDCK-MDR1 cells", "details": "cited from earlier work"}, "[2]": {"details": "rat liver microsomes; cited from earlier work"}, "[3]": {"assay": "Rat plasma protein binding", "type": "in vitro ADME"}, "Aqueous solubility": {"assay": "Aqueous solubility", "type": "physicochemical", "details": "aqueous medium (not further specified)"}, "Sprague-Dawley rats": {"test_system": "Sprague-Dawley rats", "assay": "Locomotor activity", "type": "in vivo, rat", "details": "10 mg/kg i.p., 30 min, p > 0.05"}, "[4]": {"assay": "In vivo pharmacokinetics in Sprague-Dawley rats", "details": "male, rat, ip, 10 mg/kg"}, "[5]": {"test_system": "panel of ~50 GPCRs (PDSP)", "details": "10 μM; any of the receptors of the panel"}},
  "note": "Like-named read-outs stand apart in the source and are kept apart here.",
  "data": [
    {"compound": "O=C(NCCc1cccc(C(F)(F)F)c1)Nc1ccc(Cl)cc1", "note": "[Compound 34, 3-(4-Chlorophenyl)-1-{2-[3-(trifluoromethyl)phenyl]ethyl}urea]", "values": [
      {"measurement": "%Qh (percentage of hepatic blood flow)", "setting": "[1]", "result": 69.8, "unit": "%"}
    ]},
    {"compound": "O=C(Nc1ccc(Cl)cc1)Nc1cccc(-c2cccc(N3CCCC3)n2)c1", "note": "[Compound 2, 1-(4-chlorophenyl)-3-{3-[6-(pyrrolidin-1-yl)pyridin-2-yl]phenyl}urea]", "values": [
      {"measurement": "Efflux BA/AB", "setting": "MDCK-MDR1 cells", "result": 0.8},
      {"measurement": "Papp (A-to-B)", "setting": "MDCK-MDR1 cells", "result": "2.6 ± 0 x10^−6 cm/s"},
      {"measurement": "Papp (B-to-A)", "setting": "MDCK-MDR1 cells", "result": "2.2 ± 0.1 x10^−6 cm/s"},
      {"measurement": "%Qh (percentage of hepatic blood flow)", "setting": "[2]", "result": 72.6, "unit": "%"},
      {"measurement": "fraction unbound", "setting": "[3]", "result": 0.001},
      {"measurement": "solubility", "setting": "Aqueous solubility", "result": "< 0.5", "unit": "µM"}
    ]},
    {"compound": "Cc1cccc(CCNC(=O)Nc2ccc(Cl)cc2)c1", "note": "[Compound 17, 3-(4-Chlorophenyl)-1-[2-(3-methylphenyl)ethyl]urea]", "values": [
      {"measurement": "%Qh (percentage of hepatic blood flow)", "setting": "[1]", "result": 72.2, "unit": "%"}
    ]},
    {"compound": "O=C(NCCc1cccc(Cl)c1)Nc1ccc(Cl)cc1", "note": "[Compound 31, 3-(4-Chlorophenyl)-1-[2-(3-chlorophenyl)ethyl]urea]", "values": [
      {"measurement": "locomotion", "setting": "Sprague-Dawley rats", "result": "did not significantly affect locomotion"},
      {"measurement": "CL/F", "setting": "[4]; brain", "result": 121, "unit": "mL/min/kg"},
      {"measurement": "half-life", "setting": "[4]; brain", "result": 54, "unit": "min"},
      {"measurement": "half-life", "setting": "[4]; plasma", "result": 37.8, "unit": "min"},
      {"measurement": "inhibition at PDSP panel receptors", "setting": "[5]", "result": "< 50", "unit": "% inhibition"}
    ]}
  ]
}
